Laboratory results published in the NIST ThermoML archive (doi:10.1016/j.jct.2005.07.017).
± gives the expanded uncertainty stated by the source.

Settings: 298.15 K; 101.33 kPa; Liquid

Row | mass density [kg/m3] | Compound
1 | 848.1 ± 0.73 | CC1CCCO1 (centres undefined) [2-methyltetrahydrofuran]
2 | 698.73 ± 0.86 | CCCCCCCC [octane]
3 | 735.99 ± 0.86 | COC(C)(C)C [2-methoxy-2-methylpropane]
4 | 882.09 ± 0.64 | C1CCOC1 [tetrahydrofuran]
